Experimental data: publication PMC7339578, “Multiple circulating alkaloids and saponins from intravenous Kang-Ai injection inhibit human cytochrome P450 and UDP-glucuronosyltransferase isozymes: potential drug–drug interactions” (Chinese Medicine, 2020)
Like-named read-outs stand apart in the source and are kept apart here.

How the values were obtained:
Assay type in all cases: in vitro ADME
CYP1A2 = target: T1, CYP1A2 (Homo sapiens, UniProt P05177); assay: Inhibition of recombinant CYP1A2 (probe phenacetin)
T1 construct: purchased Corning Biosciences 456203
T1 sequence (P05177 1-516): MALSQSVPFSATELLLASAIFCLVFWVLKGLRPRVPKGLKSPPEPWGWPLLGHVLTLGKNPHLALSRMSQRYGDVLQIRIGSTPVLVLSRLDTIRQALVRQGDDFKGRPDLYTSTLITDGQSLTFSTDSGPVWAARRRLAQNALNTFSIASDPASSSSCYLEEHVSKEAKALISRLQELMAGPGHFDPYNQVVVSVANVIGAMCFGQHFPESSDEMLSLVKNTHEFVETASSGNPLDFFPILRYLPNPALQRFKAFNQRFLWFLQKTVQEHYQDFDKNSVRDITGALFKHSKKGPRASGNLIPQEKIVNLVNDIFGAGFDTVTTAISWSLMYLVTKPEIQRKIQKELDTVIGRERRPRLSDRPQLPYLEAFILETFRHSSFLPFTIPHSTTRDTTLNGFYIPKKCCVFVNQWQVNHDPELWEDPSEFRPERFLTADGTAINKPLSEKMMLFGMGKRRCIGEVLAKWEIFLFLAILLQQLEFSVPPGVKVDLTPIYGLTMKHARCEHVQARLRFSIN
Experimental: (§1) In this study, phenacetin (100 μM), coumarin (100 μM), bupropion (100 μM), paclitaxel (60 μM), tolbutamide (200 μM), mephenytoin (100 μM), chlorzoxazone (200 μM) and nifedipine (40 μM) have been used as the probe substrates for CYP1A2, 2A6, 2B6, 2C8, 2C9, 2C19, 2E1 and 3A4, respectively.

CYP2C9 = CYP2C9 (Homo sapiens, UniProt P11712); assay: Inhibition of recombinant CYP2C9 (probe tolbutamide); conditions: for inhibition type (smallest AIC and SC) / Ki / α / Cmax/Ki ([I]/Ki): CYP2C9; for Cmax/Ki ([I]/Ki): selected model, rat plasma Cmax
Experimental: as §1

UGT1A9 = target: T2, UGT1A9 (Homo sapiens, UniProt O60656); assay: Inhibition of expressed UGT1A9 (probe propofol)
T2 sequence (O60656 26-530): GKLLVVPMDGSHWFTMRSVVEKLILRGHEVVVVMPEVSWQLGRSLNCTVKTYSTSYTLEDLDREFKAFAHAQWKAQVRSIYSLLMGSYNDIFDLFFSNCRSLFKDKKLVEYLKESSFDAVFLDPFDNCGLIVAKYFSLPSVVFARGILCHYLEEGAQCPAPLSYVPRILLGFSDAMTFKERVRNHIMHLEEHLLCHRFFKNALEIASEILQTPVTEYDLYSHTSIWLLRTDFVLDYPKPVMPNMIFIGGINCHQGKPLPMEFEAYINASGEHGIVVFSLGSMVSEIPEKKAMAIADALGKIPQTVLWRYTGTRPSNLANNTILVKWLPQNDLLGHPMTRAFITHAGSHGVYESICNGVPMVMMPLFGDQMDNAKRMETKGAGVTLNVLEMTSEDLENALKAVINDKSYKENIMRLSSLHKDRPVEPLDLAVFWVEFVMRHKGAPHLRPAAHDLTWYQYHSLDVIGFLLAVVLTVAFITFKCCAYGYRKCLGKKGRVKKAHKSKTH
Experimental: (§2) After centrifugation (13,800g, 10 min), the supernatant (8 μL) was obtained for determination by UHPLC system.
(§3) Similarly, β-estradiol (60 μM), propofol (40 μM) and 4-MU (350 μM) were typically used as the substrates for UGT1A1, 1A9 and 2B7, respectively. After optimization of incubation conditions (Additional file 1: Fig. S2), the protein concentrations for UGT1A1, 1A9, and 2B7 were 0.125, 0.05, and 0.05 mg/mL, respectively.

UGT2B7 = target: T3, UGT2B7 (Homo sapiens, UniProt P16662); assay: Inhibition of expressed UGT2B7 (probe 4-MU)
T3 sequence (P16662 24-529): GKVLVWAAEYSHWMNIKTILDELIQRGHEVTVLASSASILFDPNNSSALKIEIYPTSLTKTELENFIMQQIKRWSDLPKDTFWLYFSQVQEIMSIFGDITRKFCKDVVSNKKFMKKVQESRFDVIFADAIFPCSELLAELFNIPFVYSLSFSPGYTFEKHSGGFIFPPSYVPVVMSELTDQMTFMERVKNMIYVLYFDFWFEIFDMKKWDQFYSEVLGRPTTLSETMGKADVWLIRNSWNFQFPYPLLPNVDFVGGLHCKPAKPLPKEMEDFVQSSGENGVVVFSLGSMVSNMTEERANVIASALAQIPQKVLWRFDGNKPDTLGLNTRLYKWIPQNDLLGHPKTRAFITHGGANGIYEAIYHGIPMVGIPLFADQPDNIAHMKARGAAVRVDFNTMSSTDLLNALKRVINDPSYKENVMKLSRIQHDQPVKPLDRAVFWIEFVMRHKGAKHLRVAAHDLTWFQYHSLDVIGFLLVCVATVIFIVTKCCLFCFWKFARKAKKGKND
Experimental: as §2, §3

[1] = recombinant isozyme, mean ± SD of triplicate, unit not given (IC50 classes in μM), read-out: IC50 towards CYP1A2
[2] = recombinant isozyme, mean ± SD of triplicate, unit not given (IC50 classes in μM), read-out: IC50 towards UGT1A9
[3] = recombinant isozyme, mean ± SD of triplicate, unit not given (IC50 classes in μM), read-out: IC50 towards UGT2B7
[4] = recombinant isozyme, mean ± SD of triplicate, unit not given (IC50 classes in μM), read-out: IC50 towards CYP2C9
[5] = tolbutamide 200 μM, read-out: IC50 towards CYP2C9

Sequence of CYP2C9 (P11712 whole entry): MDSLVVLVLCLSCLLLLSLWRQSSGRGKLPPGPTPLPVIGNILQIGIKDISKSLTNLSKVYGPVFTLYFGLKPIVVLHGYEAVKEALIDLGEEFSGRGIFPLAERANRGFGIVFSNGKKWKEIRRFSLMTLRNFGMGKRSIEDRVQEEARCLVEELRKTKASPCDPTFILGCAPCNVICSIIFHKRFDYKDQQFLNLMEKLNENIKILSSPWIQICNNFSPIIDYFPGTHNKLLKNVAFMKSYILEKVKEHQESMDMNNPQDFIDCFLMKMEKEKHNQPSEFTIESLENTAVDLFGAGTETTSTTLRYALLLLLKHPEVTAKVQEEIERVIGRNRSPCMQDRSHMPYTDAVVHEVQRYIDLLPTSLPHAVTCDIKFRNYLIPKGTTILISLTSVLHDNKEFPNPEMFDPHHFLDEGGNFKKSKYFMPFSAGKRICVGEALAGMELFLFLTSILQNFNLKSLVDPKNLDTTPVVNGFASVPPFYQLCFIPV

O=C1CCC[C@@H]2[C@H]3CCC[N+]4([O-])CCC[C@@H](CN12)[C@@H]34 (some centres unmarked) [Compound A3, Oxymatrine]
IC50 (CYP1A2): > 100 µM
IC50 (CYP2C9; IC50 towards CYP2C9, recombinant isozyme, mean ± SD of triplicate, unit not given (IC50 classes in μM)): > 100 µM
IC50 (UGT1A9; IC50 towards UGT1A9, recombinant isozyme, mean ± SD of triplicate, unit not given (IC50 classes in μM)): > 100 µM
IC50 (UGT2B7): > 100 µM

O=C1CCC[C@@H]2[C@H]3CCCN4CCC[C@@H](CN12)[C@@H]34 [Compound A1, Matrine]
IC50 (CYP1A2): > 100 µM
IC50 (CYP2C9): > 100 µM
IC50 (UGT1A9): > 100 µM
IC50 (UGT2B7): > 100 µM

CC(C)=CCC[C@](C)(O[C@@H]1O[C@H](CO[C@@H]2O[C@@H](CO)[C@H](O)[C@H]2O)[C@@H](O)[C@H](O)[C@H]1O)[C@H]1CC[C@]2(C)[C@@H]1[C@H](O)C[C@@H]1[C@@]3(C)CC[C@H](O[C@@H]4O[C@H](CO)[C@@H](O)[C@H](O)[C@H]4O[C@@H]4O[C@H](CO)[C@@H](O)[C@H](O)[C@H]4O)C(C)(C)[C@@H]3CC[C@]12C [Compound D3, Ginsenoside Rc]
IC50 (CYP1A2; [1]): > 100 µM
IC50 towards CYP2C9 (CYP2C9; recombinant isozyme, mean ± SD of triplicate, unit not given (IC50 classes in μM)): Activation
inhibition type (smallest AIC and SC) (UGT1A9; UGT1A9): Noncompetitive inhibition
Ki (UGT1A9; UGT1A9, competitive model): 8.9 ± 1.5 µM
Ki (UGT1A9; UGT1A9, mixed-type model): 27 ± 7.5 µM
α (UGT1A9; UGT1A9, mixed-type model): 0.7 ± 0.3
Ki (UGT1A9; UGT1A9, noncompetitive model): 22.3 ± 1.4 µM
Cmax/Ki ([I]/Ki) (UGT1A9; UGT1A9, selected model, rat plasma Cmax): 0.04
IC50 (UGT1A9; propofol 40 μM, read-out: IC50 against UGT1A9): 29 µM
IC50 (UGT1A9; [2]): 29 ± 12.7 µM
IC50 (UGT2B7; [3]): > 100 µM

CC(C)=CCC[C@](C)(O[C@@H]1O[C@H](CO)[C@@H](O)[C@H](O)[C@H]1O)[C@H]1CC[C@]2(C)[C@@H]1[C@H](O)C[C@@H]1[C@@]3(C)CC[C@H](O)C(C)(C)[C@@H]3[C@@H](O[C@@H]3O[C@H](CO)[C@@H](O)[C@H](O)[C@H]3O[C@@H]3O[C@@H](C)[C@H](O)[C@@H](O)[C@H]3O)C[C@]12C [Compound C9, Ginsenoside Re]
IC50 (CYP1A2; [1]): > 100 µM
IC50 (CYP2C9; [4]): > 100 µM
IC50 (UGT1A9; [2]): > 100 µM
IC50 (UGT2B7; [3]): > 100 µM

CC(C)=CCC[C@](C)(O[C@@H]1O[C@H](CO[C@@H]2O[C@H](CO)[C@@H](O)[C@H](O)[C@H]2O)[C@@H](O)[C@H](O)[C@H]1O)[C@H]1CC[C@]2(C)[C@@H]1[C@H](O)C[C@@H]1[C@@]3(C)CC[C@H](O[C@@H]4O[C@H](CO)[C@@H](O)[C@H](O)[C@H]4O[C@@H]4O[C@H](CO)[C@@H](O)[C@H](O)[C@H]4O)C(C)(C)[C@@H]3CC[C@]12C [Compound D5, Ginsenoside Rb1]
IC50 (CYP1A2; [1]): > 100 µM
inhibition type (smallest AIC and SC) (CYP2C9): Noncompetitive inhibition
Ki (CYP2C9; competitive model): 8.2 ± 1 µM
Ki (CYP2C9; mixed-type model): 18.8 ± 4.3 µM
α (CYP2C9; mixed-type model): 0.7 ± 0.3
Ki (CYP2C9; noncompetitive model): 16.1 ± 0.9 µM
Cmax/Ki ([I]/Ki) (CYP2C9): 0.03
IC50 (CYP2C9; [4]): 8.8 ± 3.2 µM
IC50 (CYP2C9; [5]): 8.81 µM
IC50 (UGT1A9; [2]): > 100 µM
IC50 (UGT2B7; [3]): > 100 µM

CC(C)(O)[C@@H]1CC[C@](C)([C@H]2[C@@H](O)C[C@@]3(C)[C@@H]4C[C@H](O[C@@H]5O[C@H](CO)[C@@H](O)[C@H](O)[C@H]5O)[C@H]5C(C)(C)[C@@H](O[C@@H]6OC[C@@H](O)[C@H](O)[C@H]6O)CC[C@@]56C[C@@]46CC[C@]23C)O1 [Compound B2, Astragaloside IV]
IC50 (CYP1A2; [1]): > 100 µM
inhibition type (smallest AIC and SC) (CYP2C9): Noncompetitive inhibition
Ki (CYP2C9; competitive model): 17.4 ± 3.7 µM
Ki (CYP2C9; mixed-type model): 45 ± 16.6 µM
α (CYP2C9; mixed-type model): 1.5 ± 1.0
Ki (CYP2C9; noncompetitive model): 55.8 ± 5.3 µM
Cmax/Ki ([I]/Ki) (CYP2C9): 0.04
IC50 (CYP2C9; [5]): 65 µM
IC50 (UGT1A9; [2]): > 100 µM
IC50 (UGT2B7; [3]): > 100 µM

CC(C)=CCC[C@](C)(O[C@@H]1O[C@H](CO)[C@@H](O)[C@H](O)[C@H]1O)[C@H]1CC[C@]2(C)[C@@H]1[C@H](O)C[C@@H]1[C@@]3(C)CC[C@H](O[C@@H]4O[C@H](CO)[C@@H](O)[C@H](O)[C@H]4O[C@@H]4O[C@H](CO)[C@@H](O)[C@H](O)[C@H]4O)C(C)(C)[C@@H]3CC[C@]12C [Compound D2, Ginsenoside Rd]
IC50 (CYP1A2; [1]): > 100 µM
IC50 (CYP2C9; [4]): > 100 µM
IC50 (UGT1A9; [2]): > 100 µM
IC50 (UGT2B7; [3]): > 100 µM

CC(C)=CCC[C@](C)(O)[C@H]1CC[C@]2(C)[C@@H]1[C@H](O)C[C@@H]1[C@@]3(C)CC[C@H](O)C(C)(C)[C@@H]3[C@@H](O[C@@H]3O[C@H](CO)[C@@H](O)[C@H](O)[C@H]3O[C@@H]3O[C@H](CO)[C@@H](O)[C@H](O)[C@H]3O)C[C@]12C [Compound C7, Ginsenoside Rf]
IC50 (CYP1A2; [1]): > 100 µM
IC50 (CYP2C9; [4]): > 100 µM
IC50 (UGT1A9; [2]): > 100 µM
IC50 (UGT2B7; [3]): > 100 µM

CC(C)=CCC[C@](C)(O[C@@H]1O[C@H](CO)[C@@H](O)[C@H](O)[C@H]1O)[C@H]1CC[C@]2(C)[C@@H]1[C@H](O)C[C@@H]1[C@@]3(C)CC[C@H](O)C(C)(C)[C@@H]3[C@@H](O[C@@H]3O[C@H](CO)[C@@H](O)[C@H](O)[C@H]3O)C[C@]12C [Compound C6, Ginsenoside Rg1]
IC50 (CYP1A2; [1]): > 100 µM
IC50 (CYP2C9; [4]): > 100 µM
IC50 (UGT1A9; [2]): > 100 µM
IC50 (UGT2B7; [3]): > 100 µM
